From the NIST ThermoML archive (doi:10.1016/j.jct.2019.02.011)
Numbers after ± are expanded uncertainties.

Experiment: xn = mol fraction of the nth substance listed
Details: 288.15 K; 100 kPa; Liquid; Vibrating tube method; x2 = 0

| SMILES | mass density |
| --- | --- |
| CCO [ethanol] + COC(=O)OC | 794.39 ± 0.52 kg/m3 |
| CO [methanol] + COC(=O)OC | 796.19 ± 0.51 kg/m3 |
| CCCO [propan-1-ol] + COC(=O)OC | 807.62 ± 0.52 kg/m3 |

Same assay, conditions: 288.15 K; 5000 kPa; Liquid; Vibrating tube method; x2 = 0

| SMILES | mass density |
| --- | --- |
| CCO [ethanol] + COC(=O)OC | 798.18 ± 0.53 kg/m3 |
| CO [methanol] + COC(=O)OC | 800.57 ± 0.52 kg/m3 |
| CCCO [propan-1-ol] + COC(=O)OC | 811.32 ± 0.52 kg/m3 |

Same assay, conditions: 288.15 K; 10000 kPa; Liquid; Vibrating tube method; x2 = 0

| SMILES | mass density |
| --- | --- |
| CCO [ethanol] + COC(=O)OC | 802.2 ± 0.54 kg/m3 |
| CO [methanol] + COC(=O)OC | 804.93 ± 0.53 kg/m3 |
| CCCO [propan-1-ol] + COC(=O)OC | 814.7 ± 0.53 kg/m3 |

Same assay, conditions: 288.15 K; 15000 kPa; Liquid; Vibrating tube method; x2 = 0

| SMILES | mass density |
| --- | --- |
| CCO [ethanol] + COC(=O)OC | 806.02 ± 0.55 kg/m3 |
| CO [methanol] + COC(=O)OC | 808.85 ± 0.54 kg/m3 |
| CCCO [propan-1-ol] + COC(=O)OC | 817.95 ± 0.55 kg/m3 |

Same assay, conditions: 288.15 K; 20000 kPa; Liquid; Vibrating tube method; x2 = 0

| SMILES | mass density |
| --- | --- |
| CCO [ethanol] + COC(=O)OC | 809.69 ± 0.56 kg/m3 |
| CO [methanol] + COC(=O)OC | 812.92 ± 0.55 kg/m3 |
| CCCO [propan-1-ol] + COC(=O)OC | 821.27 ± 0.56 kg/m3 |

Same assay, conditions: 288.15 K; 25000 kPa; Liquid; Vibrating tube method; x2 = 0

| SMILES | mass density |
| --- | --- |
| CCO [ethanol] + COC(=O)OC | 812.95 ± 0.58 kg/m3 |
| CO [methanol] + COC(=O)OC | 816.56 ± 0.56 kg/m3 |
| CCCO [propan-1-ol] + COC(=O)OC | 824.24 ± 0.57 kg/m3 |

Same assay, conditions: 288.15 K; 30000 kPa; Liquid; Vibrating tube method; x2 = 0

| SMILES | mass density |
| --- | --- |
| CCO [ethanol] + COC(=O)OC | 816.23 ± 0.59 kg/m3 |
| CO [methanol] + COC(=O)OC | 820.09 ± 0.58 kg/m3 |
| CCCO [propan-1-ol] + COC(=O)OC | 827.24 ± 0.59 kg/m3 |

Same assay, conditions: 288.15 K; 35000 kPa; Liquid; Vibrating tube method; x2 = 0

| SMILES | mass density |
| --- | --- |
| CCO [ethanol] + COC(=O)OC | 819.12 ± 0.61 kg/m3 |
| CO [methanol] + COC(=O)OC | 823.62 ± 0.59 kg/m3 |
| CCCO [propan-1-ol] + COC(=O)OC | 830.04 ± 0.6 kg/m3 |

Same assay, conditions: 288.15 K; 40000 kPa; Liquid; Vibrating tube method; x2 = 0

| SMILES | mass density |
| --- | --- |
| CCO [ethanol] + COC(=O)OC | 822.29 ± 0.62 kg/m3 |
| CO [methanol] + COC(=O)OC | 827.04 ± 0.6 kg/m3 |
| CCCO [propan-1-ol] + COC(=O)OC | 832.73 ± 0.61 kg/m3 |

Same assay, conditions: 293.15 K; 100 kPa; Liquid; Vibrating tube method; x2 = 0

| SMILES | mass density |
| --- | --- |
| CCO [ethanol] + COC(=O)OC | 789.87 ± 0.52 kg/m3 |
| CO [methanol] + COC(=O)OC | 791.18 ± 0.51 kg/m3 |
| CCCO [propan-1-ol] + COC(=O)OC | 803.57 ± 0.52 kg/m3 |

Same assay, conditions: 293.15 K; 5000 kPa; Liquid; Vibrating tube method; x2 = 0

| SMILES | mass density |
| --- | --- |
| CCO [ethanol] + COC(=O)OC | 793.83 ± 0.53 kg/m3 |
| CO [methanol] + COC(=O)OC | 795.97 ± 0.52 kg/m3 |
| CCCO [propan-1-ol] + COC(=O)OC | 807.24 ± 0.53 kg/m3 |

Same assay, conditions: 293.15 K; 10000 kPa; Liquid; Vibrating tube method; x2 = 0

| SMILES | mass density |
| --- | --- |
| CCO [ethanol] + COC(=O)OC | 797.88 ± 0.54 kg/m3 |
| CO [methanol] + COC(=O)OC | 800.47 ± 0.53 kg/m3 |
| CCCO [propan-1-ol] + COC(=O)OC | 810.8 ± 0.54 kg/m3 |

Same assay, conditions: 293.15 K; 15000 kPa; Liquid; Vibrating tube method; x2 = 0

| SMILES | mass density |
| --- | --- |
| CCO [ethanol] + COC(=O)OC | 801.84 ± 0.55 kg/m3 |
| CO [methanol] + COC(=O)OC | 804.52 ± 0.54 kg/m3 |
| CCCO [propan-1-ol] + COC(=O)OC | 814.22 ± 0.55 kg/m3 |

Same assay, conditions: 293.15 K; 20000 kPa; Liquid; Vibrating tube method; x2 = 0

| SMILES | mass density |
| --- | --- |
| CCO [ethanol] + COC(=O)OC | 805.45 ± 0.57 kg/m3 |
| CO [methanol] + COC(=O)OC | 808.43 ± 0.55 kg/m3 |
| CCCO [propan-1-ol] + COC(=O)OC | 817.46 ± 0.56 kg/m3 |

Same assay, conditions: 293.15 K; 25000 kPa; Liquid; Vibrating tube method; x2 = 0

| SMILES | mass density |
| --- | --- |
| CCO [ethanol] + COC(=O)OC | 809.12 ± 0.58 kg/m3 |
| CO [methanol] + COC(=O)OC | 812.34 ± 0.56 kg/m3 |
| CCCO [propan-1-ol] + COC(=O)OC | 820.74 ± 0.57 kg/m3 |

Same assay, conditions: 293.15 K; 30000 kPa; Liquid; Vibrating tube method; x2 = 0

| SMILES | mass density |
| --- | --- |
| CCO [ethanol] + COC(=O)OC | 812.52 ± 0.6 kg/m3 |
| CO [methanol] + COC(=O)OC | 815.93 ± 0.58 kg/m3 |
| CCCO [propan-1-ol] + COC(=O)OC | 823.7 ± 0.59 kg/m3 |

Same assay, conditions: 293.15 K; 35000 kPa; Liquid; Vibrating tube method; x2 = 0

| SMILES | mass density |
| --- | --- |
| CCO [ethanol] + COC(=O)OC | 815.8 ± 0.61 kg/m3 |
| CO [methanol] + COC(=O)OC | 819.32 ± 0.59 kg/m3 |
| CCCO [propan-1-ol] + COC(=O)OC | 826.5 ± 0.6 kg/m3 |

Same assay, conditions: 293.15 K; 40000 kPa; Liquid; Vibrating tube method; x2 = 0

| SMILES | mass density |
| --- | --- |
| CCO [ethanol] + COC(=O)OC | 818.81 ± 0.63 kg/m3 |
| CO [methanol] + COC(=O)OC | 822.48 ± 0.61 kg/m3 |
| CCCO [propan-1-ol] + COC(=O)OC | 829.09 ± 0.62 kg/m3 |

Same assay, conditions: 298.15 K; 100 kPa; Liquid; Vibrating tube method; x2 = 0

| SMILES | mass density |
| --- | --- |
| CCO [ethanol] + COC(=O)OC | 785.59 ± 0.52 kg/m3 |
| CO [methanol] + COC(=O)OC | 786.76 ± 0.51 kg/m3 |
| CCCO [propan-1-ol] + COC(=O)OC | 799.61 ± 0.52 kg/m3 |

Same assay, conditions: 298.15 K; 5000 kPa; Liquid; Vibrating tube method; x2 = 0

| SMILES | mass density |
| --- | --- |
| CCO [ethanol] + COC(=O)OC | 789.72 ± 0.53 kg/m3 |
| CO [methanol] + COC(=O)OC | 791.52 ± 0.52 kg/m3 |
| CCCO [propan-1-ol] + COC(=O)OC | 803.49 ± 0.53 kg/m3 |

Same assay, conditions: 298.15 K; 10000 kPa; Liquid; Vibrating tube method; x2 = 0

| SMILES | mass density |
| --- | --- |
| CCO [ethanol] + COC(=O)OC | 793.76 ± 0.54 kg/m3 |
| CO [methanol] + COC(=O)OC | 795.8 ± 0.53 kg/m3 |
| CCCO [propan-1-ol] + COC(=O)OC | 807.15 ± 0.54 kg/m3 |

Same assay, conditions: 298.15 K; 15000 kPa; Liquid; Vibrating tube method; x2 = 0

| SMILES | mass density |
| --- | --- |
| CCO [ethanol] + COC(=O)OC | 797.75 ± 0.55 kg/m3 |
| CO [methanol] + COC(=O)OC | 800.13 ± 0.54 kg/m3 |
| CCCO [propan-1-ol] + COC(=O)OC | 810.5 ± 0.55 kg/m3 |

Same assay, conditions: 298.15 K; 20000 kPa; Liquid; Vibrating tube method; x2 = 0

| SMILES | mass density |
| --- | --- |
| CCO [ethanol] + COC(=O)OC | 801.4 ± 0.57 kg/m3 |
| CO [methanol] + COC(=O)OC | 804.18 ± 0.55 kg/m3 |
| CCCO [propan-1-ol] + COC(=O)OC | 813.78 ± 0.56 kg/m3 |

Same assay, conditions: 298.15 K; 25000 kPa; Liquid; Vibrating tube method; x2 = 0

| SMILES | mass density |
| --- | --- |
| CCO [ethanol] + COC(=O)OC | 805.07 ± 0.58 kg/m3 |
| CO [methanol] + COC(=O)OC | 808.04 ± 0.57 kg/m3 |
| CCCO [propan-1-ol] + COC(=O)OC | 816.92 ± 0.58 kg/m3 |

Same assay, conditions: 298.15 K; 30000 kPa; Liquid; Vibrating tube method; x2 = 0

| SMILES | mass density |
| --- | --- |
| CCO [ethanol] + COC(=O)OC | 808.47 ± 0.6 kg/m3 |
| CO [methanol] + COC(=O)OC | 811.69 ± 0.58 kg/m3 |
| CCCO [propan-1-ol] + COC(=O)OC | 820.04 ± 0.59 kg/m3 |

Same assay, conditions: 298.15 K; 35000 kPa; Liquid; Vibrating tube method; x2 = 0

| SMILES | mass density |
| --- | --- |
| CCO [ethanol] + COC(=O)OC | 811.58 ± 0.61 kg/m3 |
| CO [methanol] + COC(=O)OC | 815.2 ± 0.6 kg/m3 |
| CCCO [propan-1-ol] + COC(=O)OC | 822.87 ± 0.61 kg/m3 |
